Legend:
[1] = target: T1, Porcine pancreatic lipase (Sus scrofa, UniProt P00591); assay: Test of activity of inhibiting lipase (copper oleate colorimetry, olive oil substrate); type: biochemical, pig; settings: for Absorbance: 714 nm, blank control 0.6680; for Enzyme activity: blank control 1.69; for Concentration of generated oleic acid: blank control 2.75
T1 construct: purchased Sigma
T1 sequence (P00591 1-450): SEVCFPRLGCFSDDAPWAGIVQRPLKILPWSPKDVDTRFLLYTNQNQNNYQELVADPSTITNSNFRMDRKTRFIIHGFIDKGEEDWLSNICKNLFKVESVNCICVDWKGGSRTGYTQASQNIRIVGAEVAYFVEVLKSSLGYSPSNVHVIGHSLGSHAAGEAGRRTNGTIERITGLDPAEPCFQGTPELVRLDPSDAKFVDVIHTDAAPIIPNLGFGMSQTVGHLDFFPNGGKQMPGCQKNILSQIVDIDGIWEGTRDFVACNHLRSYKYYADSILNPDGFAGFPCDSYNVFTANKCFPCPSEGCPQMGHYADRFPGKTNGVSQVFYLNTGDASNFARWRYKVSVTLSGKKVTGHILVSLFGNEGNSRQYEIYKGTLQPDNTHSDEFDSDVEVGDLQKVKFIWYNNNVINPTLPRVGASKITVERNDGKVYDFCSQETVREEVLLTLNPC
Procedure: 2.1 Preparation of light absorbance working curve for fatty acid: a series of oleic acid-toluene solutions with different concentrations (0-3.5 mmol/L, separately being 0, 0.225, 0.45, 0.675, 0.9, 1.125, 1.35, 1.8, 2.25, 2.7, and 3.5 mmol/L), 4 mL of each was taken and placed in conical flask, added with 1 mL of color developing agent, stirred with magnetic force for 3 minutes, oleic acid molecules and copper ions formed a green complex compound, after centrifugation, organic phase of upper layer was taken and measured at 714 nm to determine light absorbance.
2.2 Enzyme solution was 0.5 mg/mL pancreatic lipase solution; buffer solution was 0.07M NaH2PO4—K2HPO4 phosphate buffer solution (pH 7.0); color developing agent was 5% copper acetate solution, which was regulated with pyridine to have pH 6.1.
3 mL of 0.07M phosphate buffer solution and 1 mL of olive oil were pre-heated at a constant temperature of 37° C. for 5 minutes in water bath under agitation with a magnetic stirrer, added with 1.3 mL of enzyme solution (negative control was that without enzyme inhibitor; positive control is that added with 100 μL of 0.1 mg/mL orlistat solution; […]), stirred with magnetic force for 10 minutes, immediately added with 8 mL of toluene, stirred continuously for 2 minutes, the reaction was terminated, the generated oleic acid was extracted. The solutions were transferred to centrifuge tube, centrifuged under 4000 rpm for 10 minutes, and the organic phase and water phase were layered and clarified. 4 mL of the upper layer organic phase was taken and placed in a small conical flask, added with 1 mL of color developing agent, stirred with magnetic stirrer for 3 minutes, the generated oleic acid reacted with copper ions to form green complex compound. After centrifugation under 4000 rpm for 10 minutes, the upper layer of toluene solution containing copper oleate was taken, and measured with a spectrophotometer at 714 nm to determine its light absorbance. A blank solution without lipase was prepared as control by the same method, and concentration of fatty acid could be determined by referring to light absorbance working curve of oleic acid.
Enzyme activity unit of lipase was defined as follows: an enzyme amount to release 1 μmol fatty acid under certain condition was defined as 1 unit of lipase activity (U).
The following formula was used to calculate enzyme activity: X=(cV)/(tV′)
wherein: X represents enzyme activity of lipase, U/mL; c represents concentration of fatty acid, […]; V represents volume of fatty acid solution, mL; V′ represents amount of enzyme solution, mL; t represents action time, minute. Inhibition rate=[(enzyme activity of lipase−enzyme activity of lipase after inhibition)/enzyme activity of lipase]×100%

[2] = test system: mice melanoma cell B16-F10; assay: MTT test of inhibiting cancer cells, B16-F10; type: cell-based; settings: Mus musculus, 72 hours, FIG. 8, read-out: IC50 value, growth of B16-F10
Procedure: (§1) Cancer cells of exponential growth phase were inoculated on 96-well plate, 2×10^4 cells/well, added with drug until final drug concentrations were: 500, 250, 125, 62.5, 31.25, 15.625 and 7.8125 μg/mL, cultured at 37° C. in 5% CO2 cell culture incubator for 72 hours, then added with MTT, 10 μL/well, incubated in dark at 37° C. for 4 hours, culture medium was removed, 150 μL of DMSO or acidified isopropanol was added, vibrated for 5 minutes, and then OD values were measured under wavelength of 570 nm. This was repeated for 3 times, and a blank control was set. These cell strains used the same culture medium, i.e., RPMI1640 culture medium containing 10% fetal bovine serum and 1% double antibody (penicillin and steptomycin).
(§2) Calculation Formula: Cell survival rate=(OD value of test group/OD value of control group)×100%.

[3] = test system: mice hepatoma cell line H22; assay: MTT test of inhibiting cancer cells, H22; type: cell-based; settings: Mus musculus, 72 hours, FIG. 2, read-out: IC50 value, growth of H22
Procedure: as §1, §2

[4] = test system: mice sarcoma cell line S180; assay: MTT test of inhibiting cancer cells, S180; type: cell-based; settings: 72 hours, FIG. 4, concentration-effect relationship
Procedure: as §1, §2

[5] = test system: human tissue lymphoma cell U937; assay: MTT test of inhibiting cancer cells, U937; type: cell-based; settings: U-937, 72 hours, FIG. 7, read-out: IC50 value, growth of U937
Procedure: as §1, §2

[6] = final concentration of inhibitor in the system 111 μg/mL
[7] = final concentration of inhibitor in the system 166 μg/mL
[8] = final concentration of inhibitor in the system 203 μg/mL
[9] = final concentration of inhibitor in the system 240 μg/mL
[10] = final concentration of inhibitor in the system 333 μg/mL

C[C@@H](C(O)C1OC2C[C@H]3C4=CC=C5CC(O)CC[C@]5(C)[C@H]4CC[C@]3(C)[C@H]2[C@@]1(C)O)C(C)(C)O (stereo partly shown) [Compound of Formula II, 16,22-epoxy-ergosta-5,7-dien-3,20,23,25-tetraol]
Absorbance [1, 6]: 0.5665
Absorbance [1, 7]: 0.5035
Absorbance [1, 8]: 0.3998
Absorbance [1, 9]: 0.2743
Absorbance [1, 10]: 0.2611
Inhibition rate [1, 6]: 15.38%
Enzyme activity [1, 6]: 1.43 U/mL
Concentration of generated oleic acid [1, 6]: 2.32 mM
Inhibition rate [1, 7]: 24.85%
Enzyme activity [1, 7]: 1.27 U/mL
Concentration of generated oleic acid [1, 7]: 2.06 mM
Inhibition rate [1, 8]: 40.83%
Enzyme activity [1, 8]: 1.00 U/mL
Concentration of generated oleic acid [1, 8]: 1.63 mM
Inhibition rate [1, 9]: 59.76%
Enzyme activity [1, 9]: 0.68 U/mL
Concentration of generated oleic acid [1, 9]: 1.10 mM
Inhibition rate [1, 10]: 62.13%
Enzyme activity [1, 10]: 0.64 U/mL
Concentration of generated oleic acid [1, 10]: 1.04 mM
IC50 ([1]; read-out: IC50 value, inhibition of activity of lipase (converted)): ~478 µM
IC50 [2]: ~62.5 µg/mL
IC50 [3]: ~50 µg/mL
inhibition effect on growth of S180 (in words) [4]: inhibition effect
IC50 [5]: ~50 µg/mL

— patent US11845774B2, “Sterol derivatives and preparation method and uses thereof” (BEIJING PEKING UNIVERSITY WBL BIOTECH CO., LTD., priority 2011, dated 2023)
